Measurements published in article PMC9516332 (Frontiers in Oncology, 2022).
Read-outs that look alike come from different tables or passages of the source.

Assays:
134 cancer cell lines [1] = experiment: Cell viability assay (ATPlite, 72 hours), IC50 on cancer cell line panel
AP-1060 (ETV6-NTRK3) = experiment: Cell viability assay; conditions: read-out: IC50 in cell proliferation assay
134 cancer cell lines [2] = test system: 134 cancer cell lines
[3] = molecular target: T1, panel of 255 wild-type kinases (Homo sapiens, UniProt Q96PF2); experiment: Kinase panel profiling at 1 µmol/L (MSA or IMAP), percentage inhibition; assay type: biochemical; conditions: kinase TSSK2; 1 µmol/L single concentration; read-out: %-inhibition at 1 µmol/L, TSSK2
T1 sequence (Q96PF2 1-358): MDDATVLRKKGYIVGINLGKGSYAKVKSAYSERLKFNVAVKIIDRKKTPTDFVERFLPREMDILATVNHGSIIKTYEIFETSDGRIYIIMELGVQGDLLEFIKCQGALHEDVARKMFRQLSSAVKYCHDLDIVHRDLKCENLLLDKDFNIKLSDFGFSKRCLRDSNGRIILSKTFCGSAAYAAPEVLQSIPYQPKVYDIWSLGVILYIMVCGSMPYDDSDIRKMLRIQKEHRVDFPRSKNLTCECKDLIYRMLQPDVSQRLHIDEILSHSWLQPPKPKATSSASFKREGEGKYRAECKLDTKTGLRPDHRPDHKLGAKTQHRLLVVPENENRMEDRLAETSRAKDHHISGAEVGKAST

[4] = molecular target: panel of 255 wild-type kinases (Homo sapiens, UniProt Q9Y463); experiment: as above; assay type: biochemical; conditions: kinase DYRK1B; 1 µmol/L single concentration; read-out: %-inhibition at 1 µmol/L, DYRK1B
[5] = molecular target: panel of 255 wild-type kinases (Homo sapiens, UniProt P08581); experiment: as above; assay type: biochemical; conditions: MET; 1 µmol/L single concentration
[6] = molecular target: panel of 255 wild-type kinases (Homo sapiens, UniProt P31749); experiment: as above; assay type: biochemical; conditions: AKT1 kinase assay; 1 µmol/L single concentration; read-out: %-inhibition AKT1

IC50 (134 cancer cell lines [1]; Homo sapiens, NCI-H82, read-out: IC50 in cell proliferation assay, cell line NCI-H82): 3.23 µM
IC50 (134 cancer cell lines [1]; Homo sapiens, NCI-H460, read-out: IC50 in cell proliferation assay, NCI-H460 cell line): 4.27 µM
IC50 (134 cancer cell lines [1]; Homo sapiens, NCI-H661, read-out: IC50 in cell proliferation assay, NCI-H661 cell line): 8.68 µM
IC50 (134 cancer cell lines [1]; Homo sapiens, NCI-H716, read-out: IC50 in cell proliferation assay, cell line NCI-H716 (FGFR2-COL14A1)): 0.262 µM
IC50 (134 cancer cell lines [1]; Homo sapiens, NCI-H1650, read-out: IC50 in cell proliferation assay, NCI-H1650 cell line (EGFR exon19del)): 7.36 µM
IC50 (134 cancer cell lines [1]; Homo sapiens, NCI-H1975, read-out: IC50 in cell proliferation assay, NCI-H1975 cell line (EGFR p.L858R + p.T790M)): 22.4 µM
IC50 (134 cancer cell lines [1]; Homo sapiens, NCI-H2228, read-out: IC50 in cell proliferation assay, NCI-H2228 cell line (EML4-ALK)): 10.2 µM
IC50 (134 cancer cell lines [1]; Homo sapiens, OVCAR-3, read-out: IC50 in cell proliferation assay, cell line OVCAR-3): 5.67 µM
IC50 (134 cancer cell lines [1]; Homo sapiens, PFSK-1, read-out: IC50 in cell proliferation assay, cell line PFSK-1): > 31.6 µM
IC50 (134 cancer cell lines [1]; Homo sapiens, RL95-2, read-out: IC50 in cell proliferation assay, cell line RL95-2 (EGFR p.A289V)): 2.28 µM
IC50 (134 cancer cell lines [1]; Homo sapiens, RPMI-7951, read-out: IC50 in cell proliferation assay, cell line RPMI-7951 (BRAF p.V600E)): 5.59 µM
IC50 (134 cancer cell lines [1]; Homo sapiens, RS4-11, read-out: IC50 in cell proliferation assay, cell line RS4;11): 1.63 µM
IC50 (134 cancer cell lines [1]; Homo sapiens, Rec1, read-out: IC50 in cell proliferation assay, cell line REC-1): 7.32 µM
IC50 (134 cancer cell lines [1]; Homo sapiens, SHP77, read-out: IC50 in cell proliferation assay, cell line SHP-77): 8.18 µM
IC50 (134 cancer cell lines [1]; Homo sapiens, SK-BR-3, read-out: IC50 in cell proliferation assay, cell line SK-BR-3 (ERBB2 amplification)): 22.6 µM
IC50 (134 cancer cell lines [1]; Homo sapiens, SK-N-AS, read-out: IC50 in cell proliferation assay, cell line SK-N-AS): 3.81 µM
IC50 (134 cancer cell lines [1]; Homo sapiens, SK-N-FI, read-out: IC50 in cell proliferation assay, cell line SK-N-FI): 4 µM
IC50 (134 cancer cell lines [1]; Homo sapiens, SK-N-MC, read-out: IC50 in cell proliferation assay, cell line SK-N-MC): 3.28 µM
IC50 (134 cancer cell lines [1]; Homo sapiens, SK-N-SH, read-out: IC50 in cell proliferation assay, cell line SK-N-SH (ALK p.F1174L)): 2.59 µM
IC50 (134 cancer cell lines [1]; Homo sapiens, SNU-5, read-out: IC50 in cell proliferation assay, cell line SNU-5 (MET amplification)): > 31.6 µM
IC50 (134 cancer cell lines [1]; Homo sapiens, SNU-16, read-out: IC50 in cell proliferation assay, cell line SNU-16 (FGFR2 amplification)): 0.304 µM
IC50 (134 cancer cell lines [1]; Homo sapiens, SNU-C2B, read-out: IC50 in cell proliferation assay, cell line SNU-C2B (EGFR p.R165Q)): > 31.6 µM
IC50 (134 cancer cell lines [1]; Homo sapiens, SU-DHL-1, read-out: IC50 in cell proliferation assay, cell line SU-DHL-1 (NPM1-ALK)): 2.76 µM
IC50 (134 cancer cell lines [1]; Homo sapiens, SU-DHL-6, read-out: IC50 in cell proliferation assay, cell line SU-DHL-6): 4.61 µM
IC50 (134 cancer cell lines [1]; Homo sapiens, SUP-T1, read-out: IC50 in cell proliferation assay, cell line SUP-T1): 2.33 µM
IC50 (134 cancer cell lines [1]; Homo sapiens, SW48, read-out: IC50 in cell proliferation assay, cell line SW48 (EGFR p.G719S)): 2.74 µM
IC50 (134 cancer cell lines [1]; Homo sapiens, SW480, read-out: IC50 in cell proliferation assay, cell line SW480): 4.03 µM
IC50 (134 cancer cell lines [1]; Homo sapiens, SW626, read-out: IC50 in cell proliferation assay, cell line SW626): > 31.6 µM
IC50 (134 cancer cell lines [1]; Homo sapiens, SW780, read-out: IC50 in cell proliferation assay, cell line SW780 (FGFR3-BAIAP2L1)): 1.95 µM
IC50 (134 cancer cell lines [1]; Homo sapiens, SW837, read-out: IC50 in cell proliferation assay, cell line SW837): 3.48 µM
IC50 (134 cancer cell lines [1]; Homo sapiens, SW872, read-out: IC50 in cell proliferation assay, cell line SW872 (BRAF p.V600E)): 5.78 µM
IC50 (134 cancer cell lines [1]; Homo sapiens, SW900, read-out: IC50 in cell proliferation assay, cell line SW900): 5.03 µM
IC50 (134 cancer cell lines [1]; Homo sapiens, SW948, read-out: IC50 in cell proliferation assay, cell line SW948): 3.92 µM
IC50 (134 cancer cell lines [1]; Homo sapiens, SW982, read-out: IC50 in cell proliferation assay, cell line SW982 (BRAF p.V600E)): 3.57 µM
IC50 (134 cancer cell lines [1]; Homo sapiens, SW-620, read-out: IC50 in cell proliferation assay, cell line SW620): 2.62 µM
IC50 (134 cancer cell lines [1]; Homo sapiens, T98G, read-out: IC50 in cell proliferation assay, cell line T98G): 2.69 µM
IC50 (134 cancer cell lines [1]; Homo sapiens, TCC-SUP, read-out: IC50 in cell proliferation assay, cell line TCCSUP): 3.13 µM
IC50 (134 cancer cell lines [1]; Homo sapiens, THP-1, read-out: IC50 in cell proliferation assay, cell line THP-1): > 31.6 µM
IC50 (134 cancer cell lines [1]; Homo sapiens, U2OS, read-out: IC50 in cell proliferation assay, cell line U2OS): 4.78 µM
IC50 (134 cancer cell lines [1]; Homo sapiens, U-87 MG, read-out: IC50 in cell proliferation assay, cell line U-87MG ATCC): > 31.6 µM
IC50 (134 cancer cell lines [1]; Homo sapiens, U-118-MG, read-out: IC50 in cell proliferation assay, cell line U-118MG): 6.34 µM
IC50 (134 cancer cell lines [1]; Homo sapiens, UMUC3, read-out: IC50 in cell proliferation assay, cell line UM-UC-3): 1.3 µM
IC50 (134 cancer cell lines [1]; Hs766T, read-out: IC50 in cell proliferation assay, Hs 766T cell line): 4.97 µM
IC50 (134 cancer cell lines [1]; L-82, read-out: IC50 in cell proliferation assay, L-82 cell line (NPM1-ALK)): 5.23 µM
IC50 (134 cancer cell lines [1]; Rh30, read-out: IC50 in cell proliferation assay, cell line Rh30): 4.03 µM
IC50 (134 cancer cell lines [1]; read-out: IC50 in cell proliferation assay, 11-18 cell line (EGFR p.L858R)): 4.08 µM
IC50 (134 cancer cell lines [1]; read-out: IC50 in cell proliferation assay, Hs 852.T cell line): 5.9 µM
IC50 (134 cancer cell lines [1]; read-out: IC50 in cell proliferation assay, JAR cell line): 4.4 µM
IC50 (134 cancer cell lines [1]; read-out: IC50 in cell proliferation assay, cell line 5637): 4.53 µM
IC50 (134 cancer cell lines [1]; read-out: IC50 in cell proliferation assay, cell line A-388): 9.59 µM
IC50 (134 cancer cell lines [1]; read-out: IC50 in cell proliferation assay, cell line DB): 3.37 µM
IC50 (134 cancer cell lines [1]; read-out: IC50 in cell proliferation assay, cell line DEL (NPM1-ALK)): 3.36 µM
IC50 (134 cancer cell lines [1]; read-out: IC50 in cell proliferation assay, cell line ES-2 (BRAF p.V600E)): > 31.6 µM
IC50 (134 cancer cell lines [1]; read-out: IC50 in cell proliferation assay, cell line PA-1): 1.82 µM
IC50 (134 cancer cell lines [1]; read-out: IC50 in cell proliferation assay, cell line PC-3): 3.85 µM
IC50 (134 cancer cell lines [1]; read-out: IC50 in cell proliferation assay, cell line RD): 6.94 µM
IC50 (134 cancer cell lines [1]; read-out: IC50 in cell proliferation assay, cell line RKO (BRAF p.V600E)): 5.12 µM
IC50 (134 cancer cell lines [1]; read-out: IC50 in cell proliferation assay, cell line RL): 2.06 µM
IC50 (134 cancer cell lines [1]; read-out: IC50 in cell proliferation assay, cell line RT-4 (FGFR3-TACC3)): 1.38 µM
IC50 (134 cancer cell lines [1]; read-out: IC50 in cell proliferation assay, cell line SR (NPM1-ALK)): 2.58 µM
IC50 (134 cancer cell lines [1]; read-out: IC50 in cell proliferation assay, cell line T24): 5.15 µM
IC50 (134 cancer cell lines [1]; read-out: IC50 in cell proliferation assay, cell line TT (RET p.C634W)): 0.019 µM
IC50 (134 cancer cell lines [1]; read-out: IC50 in cell proliferation assay, cell line VA-ES-BJ): 2.79 µM
IC50 (134 cancer cell lines [2]): 3.85 µM
inhibition at 1 µM [3]: -0.889%
inhibition at 1 µM [4]: 1.42%
inhibition at 1 µM [5]: 23%
inhibition at 1 µM [6]: -10%
Compound: COc1ccc(CN2C3CC2CN(c2ccc(-c4cc(OCC(C)(C)O)cn5ncc(C#N)c45)cn2)C3)cn1 [selpercatinib]
IC50 (AP-1060 (ETV6-NTRK3)): 3.96 µM
